Results published in ChEMBL document CHEMBL1201862, “PubChem BioAssay data set” (2004).
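Results reflect a 48-hour exposure of cells in 96-well plates to compound at five concentrations. GI50: concentration for 50% inhibition of growth.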 Activity calls are given as the source filed them. Rule as the data show it: active = GI50 up to about 1.1 µM and inactive = higher. Square brackets hold non-standard residues; d marks the D form. Peptide text beside a SMILES is read from it. pGlu = O=C1CC[CH](C(=O)O)N1

Legend:
Test in all cases: NCI-60 cell line screen, 48 h
SNB-19 = tested on: SNB-19
SK-MEL-5 = tested on: SK-MEL-5
SF-295 = tested on: SF-295
Malme-3M = tested on: Malme-3M
KM12 = tested on: KM12
UACC-62 = tested on: UACC-62
NCI-H522 = tested on: NCI-H522
COLO 205 = tested on: COLO 205
MCF7 = tested on: MCF7
MDA-N = tested on: MDA-N
MOLT-4 = tested on: MOLT-4
ACHN = tested on: ACHN
HL-60 = tested on: HL-60
SNB-75 = tested on: SNB-75
T47D = tested on: T47D
BT-549 = tested on: BT-549
M14 = tested on: M14
SN12C = tested on: SN12C

Measured: GI50

O=c1cccccc1O [TROPOLONE]
inactive: SNB-19 > 100 µM | SK-MEL-5 83 µM | SF-295 93.3 µM | Malme-3M > 100 µM | KM12 > 100 µM | UACC-62 96.6 µM | NCI-H522 33.3 µM | COLO 205 39.6 µM | MCF7 44 µM | MDA-N > 100 µM | MOLT-4 26.9 µM | ACHN > 100 µM | HL-60 11.9 µM | SNB-75 > 100 µM | T47D 52.8 µM | BT-549 87.1 µM | M14 > 100 µM

Cc1ccc([N+](=O)[O-])cc1S(=O)(=O)Nc1ccc(C2=NN(c3ccc([N+](=O)[O-])cc3[N+](=O)[O-])C(c3cccs3)C2)cc1 (configuration not stated)
inactive: SNB-19 27.9 µM | SK-MEL-5 11.5 µM | SF-295 25.6 µM | Malme-3M 25.9 µM | KM12 21 µM | NCI-H522 10.5 µM | COLO 205 23.2 µM | MCF7 17.3 µM | SN12C 18 µM | MDA-N 16.2 µM | MOLT-4 13.9 µM | ACHN 22.4 µM | HL-60 23.1 µM | SNB-75 19.5 µM | T47D 16.9 µM | BT-549 20.7 µM | M14 15 µM

CC(NC(=O)C(Cc1c[nH]cn1)NC(=O)C1CCC(=O)N1)C(N)=O (stereo not drawn) ([pGlu]-His-Ala-NH2; configuration not given here)
inactive: SNB-19 > 100 µM | SK-MEL-5 > 100 µM | SF-295 > 100 µM | Malme-3M > 100 µM | KM12 > 100 µM | UACC-62 > 100 µM | COLO 205 > 100 µM | MCF7 > 100 µM | SN12C > 100 µM | MDA-N > 100 µM | MOLT-4 > 100 µM | ACHN > 100 µM | HL-60 > 100 µM | SNB-75 > 100 µM | T47D > 100 µM | BT-549 > 100 µM | M14 > 100 µM

O=C1CSC(c2c[nH]c3ccccc23)N1c1cccc([N+](=O)[O-])c1 (configuration not stated)
inactive: SNB-19 > 100 µM | SK-MEL-5 84.3 µM | SF-295 66.7 µM | KM12 24.4 µM | UACC-62 80.5 µM | NCI-H522 95.3 µM | COLO 205 > 100 µM | MCF7 90.8 µM | SN12C > 100 µM | MDA-N 34.8 µM | MOLT-4 > 100 µM | HL-60 > 100 µM | SNB-75 43.7 µM | T47D > 100 µM | BT-549 > 100 µM | M14 > 100 µM
